Assay results: publication PMC10650955, “α-Aminophosphonate inhibitors of metallo-β-lactamases NDM-1 and VIM-2” (RSC Medicinal Chemistry, 2023)
Counter-ions that a name gives are not always drawn.

What was measured:
[1] = biological target: T1, VIM-2 (Escherichia coli, UniProt Q5U7L7); experiment: Dose rate inhibition studies for IC50 determination, VIM-2 enzymatic assay; type: biochemical; settings: Enzyme IC50 VIM-2, 0.1 nM VIM-2, 100 μM ZnCl2, nitrocefin substrate, inhibitor 0-800 μM, 3 parallel measurements; N.I. = no enzyme inhibitory activity observed
T1 construct: made in house
Description: (§1) The […] synthesized compounds 5a–l were tested for their inhibitory activities against NDM-1, VIM-2 (Table 1), and GIM-1 in an in vitro enzymatic assay (ESI ^†).[41] The inhibitory activity was measured using enzyme concentrations of 0.1 nM VIM-2, 10 nM NDM-1 or 1 nM GIM-1, with an excess Zn(II) (100 μM, see Experimental methods), with inhibitor compounds with concentrations from 0 to 800 μM. Each data point was measured in triplicates. […] This is in line with previous reports.[42,43]
(§2) A 100 μl solution with buffer (50 mM HEPES (pH 7.2), 100 μM ZnCl2, 2.5% DMSO), purified enzyme (0.1 nM VIM-2, 10 nM NDM-1 or 1 nM GIM-1) and 800–0 μM inhibitor was incubated in a 96 well plate at 25 °C for 5 min. In addition, the enzyme buffer contained 400 μg ml^−1 bovine serum albumin (BSA) to prevent protein unfolding and loss of activity due to low concentrations.[67,68] 100 μM of the reporter substrate nitrocefin (VIM-2, GIM-1) or imipenem (NDM-1) was added to the enzyme–inhibitor solution and the increase in absorbance at 482 nm (nitrocefin) or 300 nm (imipenem) was recorded on a Spectramax M4 spectrophotometer (Molecular Devices). Each data point was performed in triplicates and the initial velocity for each inhibitor concentration was analyzed by a log [inhibitor] vs. response curve fitting to calculate IC50 in GraphPad Prism 9.2 software.

[2] = biological target: T2, 15N-labelled VIM-2 (Escherichia coli, UniProt Q5U7L7); experiment: 1H,15N HSQC NMR chemical shift perturbation titration, VIM-2; type: binding; settings: VIM-2 Kd, 0-16 equiv. ligand, pH 7.0, 310 K
T2 construct: made in house
Description: (§3) Solution NMR spectroscopy is a powerful tool to assess protein–ligand interactions under close to physiological conditions.[47] We, therefore, performed NMR chemical shift perturbation (CSP, for details, see section S8, ESI ^†) experiments to identify the amino acid residues of NDM-1 and VIM-2 that are involved in inhibitor binding, making use of the previously published protein assignments.[48,49] Titrations were conducted using ^15N-labelled proteins with 0, 0.5, 1, 2, 4, 8, and 16 equiv. of 5 inhibitors for NDM-1 and of 7 inhibitors for VIM-2.
(§4) For the titrations, ^15N-labelled NDM-1 and ^15N-labelled VIM-2 (250 μM), and titrated ligands (0.5 equiv. in 1 μL) were prepared in the same buffer as the protein (20 mM KPO4, 0.1 mM ZnCl2, pH 7.0 with 10% D2O and 2.5% DMSO-d6). ^1H,^15N HSQC spectra were acquired with 128 × 1024 complex points (F1 × F2) and spectral width of 9090 × 2740 Hz on ^15N-labeled NDM-1/VIM-2 and with every titration step up to 1 : 16 ratio between protein : ligand (0, 0.5, 1, 2, 4, 8, and 16 equiv. of ligand). All experiments were recorded on a Bruker 600 MHz spectrometer at 310 K equipped with a 5 mm TCI cryogenic probe. The NMR data were processed on the MestReNova software with the Mnova Binding plugin. The weighted average chemical shift perturbations (CSP) for the backbone amides were calculated from the observed chemical shift differences in the proton and nitrogen dimensions using the equation (chemical shift scaling factors: FH = 1, FN = 0.156) CSP = Δδ1H,15N = [drawing 13] .
(§5) 7. Chemical shift perturbation histograms
(§6) Chemical shift perturbation was calculated according equation (1) 2
(§7) CSP = Δδ(1H,15N) = √(Δδ1H2 + (1⁄R × Δδ15N2) Rscale = 6.5 (1)
(§8) Where Δδ1H is the chemical shift change for proton dimension, Δδ15N is the chemical shift change for nitrogen dimension, Rscale is a
(§9) The chemical shift perturbations (CSP) were classified as significant (SSP) when the observed Δδ(1H,15N) was greater than the population
(§10) mean plus the standard deviation (µ+1σ) – solid line; (µ+2σ) – dashed line, and (µ+3σ) – dashed line.
(§11) Further on, Kd was calculated according: 3
(§12) ([P]+[L]+Kd)− √([P]+[L]+Kd)2−4[P][L]
(§13) ΔδmaxΔδobs = Δδmax 2[P] (2)
(§14) Where Kd is the dissociation constant, [P] and [L] are protein and ligand concentrations, respectively. Δδmax were estimated in
(§15) MestReNova by extrapolation of the obser ved chemical shift differences Δδobs.

[3] = biological target: T3, 15N-labelled NDM-1 (Klebsiella pneumoniae, UniProt C7C422); experiment: 1H,15N HSQC NMR chemical shift perturbation titration, NDM-1; type: binding
T3 construct: made in house
Description: as §3, §4, §5, §6, §7, §8, §9, §10, §11, §12, §13, §14, §15

[4] = biological target: T4, NDM-1 (Klebsiella pneumoniae, UniProt C7C422); experiment: Dose rate inhibition studies for IC50 determination, NDM-1 enzymatic assay; type: biochemical; settings: Enzyme IC50 NDM-1, 10 nM NDM-1, 100 μM ZnCl2, imipenem substrate, inhibitor 0-800 μM, 3 parallel measurements; N.I. = no enzyme inhibitory activity observed
T4 construct: made in house
Description: as §1, §2

T3 sequence (C7C422 29-270 limits assumed): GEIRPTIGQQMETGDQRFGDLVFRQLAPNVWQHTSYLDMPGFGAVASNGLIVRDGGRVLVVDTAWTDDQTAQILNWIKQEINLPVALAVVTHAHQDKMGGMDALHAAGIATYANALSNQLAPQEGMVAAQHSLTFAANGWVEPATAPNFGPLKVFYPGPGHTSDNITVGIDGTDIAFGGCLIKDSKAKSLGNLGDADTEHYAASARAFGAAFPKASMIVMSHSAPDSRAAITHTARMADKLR
T4 sequence (C7C422 29-270 limits assumed): as above

Compound `O=C(NC(C1CCCCN1)P(=O)(O)O)c1ccsc1` (centres unmarked) [Compound 5c-1, (Piperidin-2-yl(thiophene-3-carboxamido)methyl)phos-phonic acid hydrochloride] has an IC50 [1] of 0.033 ± 0.003 mM, a Kd [2] of 0.4 ± 0.03 mM and a Kd ([3]; Estimated binding constant (Kd), residue 070F, Table S5, per-residue fit, NDM-1 070F) of 15.2 mM. For the same compound, the Kd ([3]; Estimated binding constant (Kd), residue 091T, Table S5, per-residue fit, NDM-1 091T) was 4.17 mM, the Kd ([3]; Estimated binding constant (Kd), residue 108E, Table S5, per-residue fit, NDM-1 108E) was 4.5 mM and the Kd ([3]; Estimated binding constant (Kd), residue 119T, Table S5, per-residue fit, NDM-1 119T) was 10.7 mM. It also gave a Kd ([3]; Estimated binding constant (Kd), residue 123Q, Table S5, per-residue fit, NDM-1 123Q) of 1.69 mM, a Kd ([3]; Estimated binding constant (Kd), residue 124D, Table S5, per-residue fit, NDM-1 124D) of 5.76 mM and a Kd ([3]; Estimated binding constant (Kd), residue 127G, Table S5, per-residue fit, NDM-1 127G) of 10.8 mM. The Kd ([3]; Estimated binding constant (Kd), residue 143A, Table S5, per-residue fit, NDM-1 143A) was 8.49 mM, the Kd ([3]; Estimated binding constant (Kd), residue 149A, Table S5, per-residue fit, NDM-1 149A) was 1.76 mM and the Kd ([3]; Estimated binding constant (Kd), residue 152E, Table S5, per-residue fit, NDM-1 152E) was 3.85 mM. It also gave a Kd ([3]; Estimated binding constant (Kd), residue 159H, Table S5, per-residue fit, NDM-1 159H) of 11.7 mM, a Kd ([3]; Estimated binding constant (Kd), residue 160S, Table S5, per-residue fit, NDM-1 160S) of 5.4 mM and a Kd ([3]; Estimated binding constant (Kd), residue 188G, Table S5, per-residue fit, NDM-1 188G) of 15.8 mM. It also gave a Kd ([3]; Estimated binding constant (Kd), residue 191S, Table S5, per-residue fit, NDM-1 191S) of 0.48 mM, a Kd ([3]; Estimated binding constant (Kd), residue 194I, Table S5, per-residue fit, NDM-1 194I) of 6.26 mM and a Kd ([3]; Estimated binding constant (Kd), residue 197G, Table S5, per-residue fit, NDM-1 197G) of 1.51 mM. For the same compound, the Kd ([3]; Estimated binding constant (Kd), residue 205F, Table S5, per-residue fit, NDM-1 205F) was 3.19 mM, the Kd ([3]; Estimated binding constant (Kd), residue 206G, Table S5, per-residue fit, NDM-1 206G) was 3.95 mM and the Kd ([3]; Estimated binding constant (Kd), residue 211K, Table S5, per-residue fit, NDM-1 211K) was 10 mM. For the same compound, the Kd ([3]; Estimated binding constant (Kd), residue 213S, Table S5, per-residue fit, NDM-1 213S) was 9.53 mM, the Kd ([3]; Estimated binding constant (Kd), residue 214K, Table S5, per-residue fit, NDM-1 214K) was 6.4 mM and the Kd ([3]; Estimated binding constant (Kd), residue 217S, Table S5, per-residue fit, NDM-1 217S) was 11.8 mM. For the same compound, the Kd ([3]; Estimated binding constant (Kd), residue 228H, Table S5, per-residue fit, NDM-1 228H) was 17.9 mM, the Kd ([3]; Estimated binding constant (Kd), residue 229Y, Table S5, per-residue fit, NDM-1 229Y) was 6.74 mM and the Kd ([3]; Estimated binding constant (Kd), residue 230A, Table S5, per-residue fit, NDM-1 230A) was 11.5 mM. It also gave a Kd ([3]; Estimated binding constant (Kd), residue 232S, Table S5, per-residue fit, NDM-1 232S) of 10.2 mM, a Kd ([3]; Estimated binding constant (Kd), residue 248M, Table S5, per-residue fit, NDM-1 248M) of 36.6 mM and a Kd ([3]; Estimated binding constant (Kd), residue 249S, Table S5, per-residue fit, NDM-1 249S) of 4.15 mM. It also gave a Kd ([3]; Estimated binding constant (Kd), residue 251S, Table S5, per-residue fit, NDM-1 251S) of 15.4 mM, a Kd ([3]; Estimated binding constant (Kd), residue 254D, Table S5, per-residue fit, NDM-1 254D) of 5.56 mM and a Kd ([3]; Estimated binding constant (Kd), residue 255S, Table S5, per-residue fit, NDM-1 255S) of 10.6 mM. For the same compound, the Kd ([3]; NDM-1 Kd, NMR chemical shift perturbation, 0-16 equiv. ligand, pH 7.0, 310 K) was 3.1 ± 0.3 mM and the IC50 [4] was 0.219 ± 0.014 mM.
